US4874869A, “Hydantoin derivatives and medicines containing the same” (Eisai Co., Ltd., priority 1980, dated 1989)
Read-outs that look alike come from different tables or passages of the source.

Experiments:
[1] = tested on: sorbitol accumulation in the lens and the sciatic nerve; test: Reduction or inhibition of sorbitol accumulation in the lens and the sciatic nerve of streptozotocin-induced diabetic rats; assay type: in vivo, rat; conditions: for Inhibition of sorbitol accumulation: vs no compound; for higher activities such as the inhibition of sorbitol accumulation, predominant diastereomer compared with the other isomer: predominant vs minor diastereomer; for superior effect on the inhibition of sorbitol accumulation in comparison with the control compound: vs control compound, Table 1
Procedure: The compounds listed in Tables 1 and 2 were tested for the ability to reduce or inhibit the accumulation of sorbitol in the lens and the sciatic nerve of streptozotocin-induced diabetic rats by the method of M. J. Peterson et al., [Metabolism, Vol. 28, No. 4, Supply. 1 (April), 456-461 (1979)]. […] In this experiment, the amount of sorbitol accumulation in the lens and the sciatic nerve of the rat was measured 28 hours after induction of diabetes.
The compounds listed in Tables 1 and 2 were orally administered at, the dose levels indicated in the Tables, 4, 8 and 25 hours after the administration of the streptozotocin.

[2] = tested on: cataract formation in galactosemic rats; test: Effect on cataract formation in galactosemic rats (visual observation of lenticular opacities); assay type: in vivo, male Sprague-Dawley rats; conditions: for lenticular opacities, number with grade ++ / lenticular opacities, number with grade +++ / lenticular opacities, number with grade + / lenticular opacities, number with grade - (no opacity): 16th day, total 6
Procedure: (§1) On the 16th day of the study (24 hours after the final administration) lenticular opacities were observed, and then the lens and the sciatic nerve were enucleated to determine the content of carbohydrates.
The abscissa in FIG. 1 indicates the number of days from the beginning of feeding of a 30% galactose diet, and the ordinate indicates the percentages of appearance of the cataract.
In Table 3, a symbol - represents the case of no opacity and +, ++, +++ show the grade of the opacity, respectively.

[3] = tested on: galactitol accumulation in the lens and the sciatic nerve; test: Inhibition of galactitol accumulation in the lens and the sciatic nerve of galactosemic rats; assay type: in vivo, male Sprague-Dawley rats; conditions: for Inhibition of galactitol accumulation: 16th day
Procedure: as §1

[4] = molecular target: T1, aldose reductase (Bos taurus, UniProt P16116); test: Inhibition effect on aldose reductase; assay type: biochemical; conditions: for activity of the d-type relative to the dl-type product: aldose reductase
T1 construct: Aldose reductase was prepared by the method of Hayman et al; from tissue
Procedure: Aldose reductase was prepared by the method of Hayman et al. [S. Hayman and K.K. Kinoshita; Journal of Biological Chemistry, Vol. 240, p.

[5] = lens, 0.2 mg/kg oral, 4, 8 and 25 h after streptozotocin
[6] = lens, 1 mg/kg oral, 4, 8 and 25 h after streptozotocin
[7] = lens, 5 mg/kg oral, 4, 8 and 25 h after streptozotocin
[8] = lens, 10 mg/kg oral, 4, 8 and 25 h after streptozotocin
[9] = sciatic nerve, 0.2 mg/kg oral, 4, 8 and 25 h after streptozotocin
[10] = sciatic nerve, 1 mg/kg oral, 4, 8 and 25 h after streptozotocin
[11] = sciatic nerve, 5 mg/kg oral, 4, 8 and 25 h after streptozotocin
[12] = sciatic nerve, 10 mg/kg oral, 4, 8 and 25 h after streptozotocin
[13] = right, 25 mg/kg oral once a day
[14] = sciatic nerve, 1 mg/kg oral once a day
[15] = sciatic nerve, 5 mg/kg oral once a day
[16] = sciatic nerve, 25 mg/kg oral once a day
[17] = similar manner as in Experiment 3, d-type vs dl-type product, read-out: ID50, inhibition effect on the Aldose reductase
[18] = Table 5, read-out: ID50 (concentration of 50% inhibition on aldose reductase)

| Compound | Inhibition of sorbitol accumulation [1, 5] [%] | Inhibition of sorbitol accumulation [1, 6] [%] | Inhibition of sorbitol accumulation [1, 7] [%] | Inhibition of sorbitol accumulation [1, 8] [%] | Inhibition of sorbitol accumulation [1, 9] [%] | Inhibition of sorbitol accumulation [1, 10] [%] | Inhibition of sorbitol accumulation [1, 11] [%] | Inhibition of sorbitol accumulation [1, 12] [%] | Inhibition on aldose reductase ([4]; 3 × 10^-6 (M)) [%] | Inhibition on aldose reductase ([4]; 3 × 10^-7 (M)) [%] | Inhibition on aldose reductase ([4]; 10^-6 (M)) [%] | Inhibition on aldose reductase ([4]; 10^-7 (M)) [%] | IC50 [4, 17] [nM] | IC50 [4, 18] [nM] | further results |
| --- | --- | --- | --- | --- | --- | --- | --- | --- | --- | --- | --- | --- | --- | --- | --- |
| O=C1NC(=O)C2(CCOc3ccc(F)cc32)N1 (stereo not drawn) [6-fluoro-spiro-[chroman-4,4'-imidazolidine]-2',5'-dione, reference compound] | -29 | 41 | 62 | 77 | 26 | 15 | 67 | 88 | 78 | 17 | 53 | 2 |  |  | lenticular opacities on the 16th day (in words) ([2]; 25 mg/kg oral once a day): lenticular opacities were not observed; lenticular opacities, number with grade ++ ([2]; left, 1 mg/kg oral once a day): 3; lenticular opacities, number with grade +++ ([2]; left, 1 mg/kg oral once a day): 3; lenticular opacities, number with grade + ([2]; left, 5 mg/kg oral once a day): 4; lenticular opacities, number with grade - (no opacity) ([2]; left, 5 mg/kg oral once a day): 2; lenticular opacities, number with grade - (no opacity) ([2]; left, 25 mg/kg oral once a day): 6; lenticular opacities, number with grade ++ ([2]; right, 1 mg/kg oral once a day): 2; lenticular opacities, number with grade +++ ([2]; right, 1 mg/kg oral once a day): 4; lenticular opacities, number with grade + ([2]; right, 5 mg/kg oral once a day): 4; lenticular opacities, number with grade - (no opacity) ([2]; right, 5 mg/kg oral once a day): 2; lenticular opacities, number with grade - (no opacity) [2, 13]: 6; Inhibition of galactitol accumulation ([3]; lens, 1 mg/kg oral once a day): -11%; Inhibition of galactitol accumulation ([3]; lens, 5 mg/kg oral once a day): 5%; Inhibition of galactitol accumulation ([3]; lens, 25 mg/kg oral once a day): 22%; Inhibition of galactitol accumulation [3, 14]: 1%; Inhibition of galactitol accumulation [3, 15]: -12%; Inhibition of galactitol accumulation [3, 16]: 17% |
| CC1(C)CC2(NC(=O)NC2=O)c2cc(Cl)cc(Cl)c2O1 (stereo not drawn) [6,8-Dichloro-2,2-dimethyl-spiro-[chroman-4,4'-imidazolidine]-2',5'-dione] |  |  |  | 87 |  |  |  | 55 |  |  |  |  |  |  |  |
| CC1Oc2ccc(Cl)cc2C12NC(=O)NC2=O (stereo not drawn) [5-Chloro-2-methyl-spiro-[benzofuran-3,4'-imidazolidine]-2',5'-dione] |  |  |  | 95 |  |  |  | 45 |  |  |  |  |  |  |  |
| CC1CC2(NC(=O)NC2=O)c2ccc(Cl)cc2O1 (stereo not drawn) [7-Chloro-2-methyl-spiro-[chroman-4,4'-imidazolidine]-2',5'-dione] |  |  | 83 |  |  |  |  |  |  |  |  |  |  |  |  |
| CC1CC2(NC(=O)NC2=O)c2ccccc2O1 (stereo not drawn) [2-Methyl-spiro-[chroman-4,4'-imidazolidine]-2',5'-dione] |  |  | 54 |  |  |  | 77 |  |  |  |  |  |  |  |  |
| CC1CC2(NC(=O)NC2=O)c2cc(Cl)ccc2O1 (stereo not drawn) [d-6-chloro-2-methyl-spiro-[chromane-4,4'-imidazolidine]-2',5'-dione] |  |  |  |  |  |  |  |  |  |  |  |  | 43 |  | activity of the d-type relative to the dl-type product ([4]; d-type vs dl-type product): about twice |
| CC1CC2(NC(=O)NC2=O)c2cc(Cl)ccc2O1 (stereo not drawn) [6-Chloro-2-methyl-spiro-[chroman-4,4'-imidazolidine]-2',5'-dione] |  |  |  | 97 |  |  |  | 82 | 92 | 31 | 84 | 0 | 77 | 400 | higher activities such as the inhibition of sorbitol accumulation, predominant diastereomer compared with the other isomer [1]: 3-5 times; superior effect on the inhibition of sorbitol accumulation in comparison with the control compound [1]: 2-10 times |
| CC1(C)CC2(NC(=O)NC2=O)c2cc(Cl)ccc2O1 (stereo not drawn) [6-Chloro-2,2-dimethyl-spiro-[chroman-4,4'-imidazolidine]-2',5'-dione] | 11 | 60 | 78 | 89 | 47 | 86 | 95 | 100 | 79 | 8 | 47 | -4 |  | 1000 | lenticular opacities on the 16th day (in words) ([2]; 5 mg/kg oral once a day): lenticular opacities were not observed; lenticular opacities on the 16th day (in words) ([2]; 25 mg/kg oral once a day): lenticular opacities were not observed; inhibition effect on cataract formation (in words) ([2]; galactosemic rats, FIG. 1 and Table 3): superior to the control compound; lenticular opacities, number with grade + ([2]; left, 1 mg/kg oral once a day): 1; lenticular opacities, number with grade - (no opacity) ([2]; left, 1 mg/kg oral once a day): 5; lenticular opacities, number with grade - (no opacity) ([2]; left, 5 mg/kg oral once a day): 6; lenticular opacities, number with grade - (no opacity) ([2]; left, 25 mg/kg oral once a day): 6; lenticular opacities, number with grade + ([2]; right, 1 mg/kg oral once a day): 1; lenticular opacities, number with grade - (no opacity) ([2]; right, 1 mg/kg oral once a day): 5; lenticular opacities, number with grade - (no opacity) ([2]; right, 5 mg/kg oral once a day): 6; lenticular opacities, number with grade - (no opacity) [2, 13]: 6; Inhibition of galactitol accumulation ([3]; lens, 1 mg/kg oral once a day): 2%; Inhibition of galactitol accumulation ([3]; lens, 5 mg/kg oral once a day): 19%; Inhibition of galactitol accumulation ([3]; lens, 25 mg/kg oral once a day): 46%; Inhibition of galactitol accumulation [3, 14]: 5%; Inhibition of galactitol accumulation [3, 15]: 50%; Inhibition of galactitol accumulation [3, 16]: 74%; inhibitory effect on galactitol accumulation in the sciatic nerve relative to the control compound ([3]; sciatic nerve, vs control compound): five times or more; inhibition of galactitol accumulation relative to the control compound ([3]; vs control compound): remarkably superior to the control compound |
| CC1CC2(NC(=O)NC2=O)c2cc(F)ccc2O1 (stereo not drawn) [d-6-fluoro-2-methyl-spiro-[chromane-4,4'-imidazolidine]-2',5'-dione] |  |  |  |  |  |  |  |  |  |  |  |  | 93 |  | activity of the d-type relative to the dl-type product ([4]; d-type vs dl-type product): about twice |
| CC1(C)CC2(NC(=O)NC2=O)c2cc(Br)ccc2O1 (stereo not drawn) [6-Bromo-2,2-dimethyl-spiro-[chroman-4,4'-imidazolidine]-2',5'-dione] |  |  |  | 88 |  |  |  | 100 |  |  |  |  |  |  |  |
| CC1CC2(NC(=O)NC2=O)c2cc(Cl)c(Cl)cc2O1 (stereo not drawn) [6,7-Dichloro-2-methyl-spiro-[chroman-4,4'-imidazolidine]-2',5'-dione] |  |  | 88 |  |  |  |  |  |  |  |  |  |  |  |  |
| CC1CC2(NC(=O)NC2=O)c2cc(F)ccc2O1 (stereo not drawn) [6-Fluoro-2-methyl-spiro-[chroman-4,4'-imidazolidine]-2',5'-dione] | 43 | 80 | 93 | 96 | 39 | 100 | 100 | 100 | 91 | 31 | 77 | 7 | 180 | 500 | higher activities such as the inhibition of sorbitol accumulation, predominant diastereomer compared with the other isomer [1]: 3-5 times; superior effect on the inhibition of sorbitol accumulation in comparison with the control compound [1]: 2-10 times |
| CC1(C)CC2(NC(=O)NC2=O)c2cc(F)ccc2O1 (stereo not drawn) [6-Fluoro-2,2-dimethyl-spiro-[chroman-4,4'-imidazolidine]-2',5'-dione] | 35 | 58 | 72 | 81 | 22 | 33 | 81 | 93 | 70 | 12 | 40 | 0 |  | 2000 |  |
